Experimental data reported in patent publication US11278526B2, “Compounds and methods for treating lupus” (RECEPTOS LLC, priority 2016, dated 2022).
Where two headings read alike, the source gives them in different places.

Key:
NZBWF1 mice [1] = experiment: Survival in NZBWF1 SLE mouse model; format: in vivo; conditions: cyclophosphamide 50 mg/kg IP once a week (compound 5 study), Logrank p=0.0017
Description: As in Example 2, compound 5 was tested for efficacy in the same NZB×NZW F1 (“NZBWF1”) mouse model for SLE as compound 148. Six groups of NZBWF1 mice (Jackson Laboratories, stock #100008) were used in the study and were acclimated to the research facility for 6 weeks prior to the start of the study. Weekly measurements of proteinuria (excess serum proteins present in the urine) and body weight began at 20 weeks of age. At 22 weeks of age, the mice were assigned to groups in a balanced manner in order to achieve average body weight and average proteinuria measurements across the groups. One “naive” group consisting of 10 mice was euthanized at the start of treatment and used as a source of tissue for analysis. Treatment began at 22 weeks of age.
The five treatment groups were administered cyclophosphamide (positive control, 20 mice; introduced gradually to reduce toxicity (IP, once a week, 10 mg/kg at Weeks 22 and 23 and 50 mg/kg from Week 24 to the end of the study)), vehicle (negative control, 20 mice), or compound 5 (three groups of 20 mice), beginning at 22 weeks of age and observed over the course of 20 weeks. The three groups dosed with compound 5 received 0.3, 1.0, and 3.0 mg/kg PO QD, respectively (20 mice per dosage). Surviving animals were sacrificed at 42 weeks. […] Disease development was evaluated as disclosed in the following examples.

NZBWF1 mice [2] = experiment: Serum blood urea nitrogen (BUN) at termination; format: in vivo
Description: Lymphocyte counts were measured from whole blood taken at 23, 31, and 36.5 weeks using flow cytometry. Cells were gated for CD4+ T cells, CD8+ T cells, and CD19+ B cells. […] Serum blood urea nitrogen (BUN) was also measured at termination to assess kidney function.
As in Example 4, serum blood urea nitrogen (BUN) was measured at termination to assess kidney function.

splenocytes = experiment: Splenocyte counts and immunophenotyping of spleen cell subtypes; format: in vivo, mice; conditions: mouse, in vivo
Description: To determine the effects of compound 148 on inflammatory infiltrate in the spleen, spleens were weighed at 42 weeks. […] Splenocyte suspensions were then prepared. RBCs were lysed and splenocytes were counted.
Plasmacytoid dendritic cells (pDC) express IFNAR1 (Interferon alpha receptor 1), which amplifies the proinflammatory response to type 1 interferons (e.g., IFNα) that are associated with lupus. IFNAR activity is considered to be an important modulator of signal strength and duration in pDC and subsequent activation of T and B cells in the inflammatory response. pDC counts were measured at termination.
To determine the effects of compound 5 on inflammatory infiltrate in the spleen, spleens were weighed at 42 weeks. […] Splenocyte suspensions were prepared for all three doses. RBCs were lysed and splenocytes were counted.

[3] = NZBWF1 mice, cyclophosphamide IP once a week
Description: Compound 148 was tested for efficacy in an art-accepted mouse model for SLE: NZB×NZW F1 (“NZBWF1”) mice develop an autoimmune disease closely resembling SLE. These mice spontaneously produce high levels of anti-dsDNA antibodies, an indicator of SLE, starting after 20 weeks of age. These mice develop hemolytic anemia, proteinuria, and progressive glomerulonephritis mediated by immune complex deposition in the glomerular basement membrane.
Six groups of NZBWF1 mice (Jackson Laboratories, stock #100008) were used in the study and were acclimated to the research facility for 7 weeks prior to the start of the study. Weekly measurements of proteinuria (excess serum proteins present in the urine) and body weight began at 20 weeks of age. At 23 weeks of age, the mice were assigned to groups in a balanced manner in order to achieve average body weight and average proteinuria measurements across the groups. […]
The three groups dosed with compound 148 received 0.3, 1.0, and 3.0 mg/kg PO QD, respectively (20 mice per dosage). […] Disease development was evaluated as disclosed in the following examples. […]
The three groups dosed with compound 5 received 0.3, 1.0, and 3.0 mg/kg PO QD, respectively (20 mice per dosage). […] Disease development was evaluated as disclosed in the following examples.

NZBWF1 mice [4] = experiment: Proteinuria scores (urine dip sticks) in NZBWF1 SLE mouse model; format: in vivo
From the text: Six groups of NZBWF1 mice (Jackson Laboratories, stock #100008) were used in the study and were acclimated to the research facility for 7 weeks prior to the start of the study. Weekly measurements of proteinuria (excess serum proteins present in the urine) and body weight began at 20 weeks of age. At 23 weeks of age, the mice were assigned to groups in a balanced manner in order to achieve average body weight and average proteinuria measurements across the groups. One “naive” group consisting of 10 mice was euthanized at the start of treatment and used as a source of tissue for analysis. Treatment began at 23 weeks of age.
The three groups dosed with compound 148 received 0.3, 1.0, and 3.0 mg/kg PO QD, respectively (20 mice per dosage). Surviving animals were sacrificed at 42 weeks. […] Disease development was evaluated as disclosed in the following examples.
High levels of proteinuria are a strong indicator of SLE. […] Proteinuria was expressed as a score from 0 to 4 (0=no protein; 1=traces of protein (<30 mg/dL); 2=30-100 mg/dL; 3=100-500 mg/dL; 4=>500 mg/dL).
As in Example 3, proteinuria was measured weekly beginning at 20 weeks using urine dip sticks (Roche Diagnostics Chemstrip 2GP, cat. no. 11895397160, per manufacturer's protocol). Proteinuria was expressed as a score from 0 to 4 (0=no protein; 1=traces of protein (<30 mg/dL); 2=30-100 mg/dL; 3=100-500 mg/dL; 4=>500 mg/dL). […] (In this and the following experiments, the number of mice per group was approximately 20, and statistics were determined by one-way ANOVA with Dunnett's comparison.)

NZBWF1 mice [5] = experiment: Kidney weight at termination (42 weeks); format: in vivo
From the text: In SLE, inflammatory infiltrates known as Tertiary Lymphatic Tissue (TLT) accumulate in the kidney and spleen, among other tissues. As an indirect measure of disease progression, right and left kidneys were weighed (FIGS. 4A-4B) following termination at 42 weeks.
As in Example 5, left kidneys were weighed (FIG. 43) following termination at 42 weeks.

[6] = cyclophosphamide 50 mg/kg IP once a week (compound 5 study)
[7] = cyclophosphamide 50 mg/kg IP once a week (compound 148 study), p<0.05

O=P1(N(CCCl)CCCl)NCCCO1 (stereo not shown) [cyclophosphamide, reference compound]
Survival compared to vehicle (NZBWF1 mice [1]): improved survival compared to vehicle treated animals | Serum BUN at termination vs vehicle (NZBWF1 mice [2]; [6]): significant reduction in serum BUN | Serum BUN at termination vs vehicle (NZBWF1 mice [2]; [7]): significant reduction in serum BUN | Decrease of splenic pDC counts relative to vehicle (splenocytes): 47% | Percent Reduction vs Vehicle: Activated CD4 + T cells (splenocytes): 89% | Percent Reduction vs Vehicle: CD4 + T cells (splenocytes): 77% | Percent Reduction vs Vehicle: CD8 + T cells (splenocytes): 48% | Percent Reduction vs Vehicle: CD11b + Ly6C^hi monocytes (splenocytes): 25% | Percent Reduction vs Vehicle: CD19 + B cells (splenocytes): 91% | Percent Reduction vs Vehicle: Follicular B cells (splenocytes): 93% | Percent Reduction vs Vehicle: Germinal Center B cells (splenocytes): 99% | Percent Reduction vs Vehicle: Marginal Zone B cells (splenocytes): 57% | Percent Reduction vs Vehicle: Marginal Zone Progenitor B cells (splenocytes): 78% | Percent Reduction vs Vehicle: Naive CD4 + T cells (splenocytes): 45% | Percent Reduction vs Vehicle: Plasma cells (splenocytes): 90% | Percent Reduction vs Vehicle: Tfh cells (splenocytes): 97% | Percent Reduction vs Vehicle: Total splenocytes (splenocytes): 73% | Percent Reduction vs Vehicle: Treg cells (splenocytes): 80% | Percent Reduction vs Vehicle: pDC (splenocytes): 64% | Reduction in splenic CD4+ T cell population (splenocytes): 84% | Reduction in splenic CD8+ T cell population (splenocytes): 46% | Reduction in splenic CD19+ B cell population (splenocytes): 92% | Reduction in splenic Follicular (FO) B cells (splenocytes): 96% | Reduction in splenic Germinal Center (GC) B cell population (splenocytes): 99% | Reduction in splenic Marginal Zone (MZ) B cell population (splenocytes): 74% | Reduction in splenic activated CD4+ T cell population (splenocytes): 93% | Reduction in splenic naïve CD4+ T cells (splenocytes): 47% | Reduction in splenic plasma cell population (splenocytes): 18% | Body weight ([3]; 50 mg/kg from week 24 (compound 5 study)): increased body weights | Body weight ([3]; 50 mg/kg from week 25 (compound 148 study)): increased body weights | Proteinuria scores relative to vehicle (NZBWF1 mice [4]; [6]): significant improvement relative to vehicle | Proteinuria scores relative to vehicle (NZBWF1 mice [4]; [7]): significant improvement relative to vehicle | Left kidney weight relative to vehicle (NZBWF1 mice [5]; [6]): significantly reduced kidney weight relative to vehicle | Kidney weight relative to vehicle (NZBWF1 mice [5]; [7]): significantly reduced kidney weight relative to vehicle
